Experiments:
Solubility in base oil = assay type: physicochemical
Description: (§1) Silver complex 1 was combined with PAO4 and 15W40 military-grade engine oil (FF oil). The complex was dissolved in the minimal amount of hexane (1 mL per 1 g silver complex) and then added to the oil to achieve complex concentrations of 1.0, 2.5 and 5.0 wt %. Before testing, the oil-silver complex mixtures were stirred with a magnetic stir bar for 30 minutes to ensure a homogeneous dispersion.
Solubility in base oil is an important property for tribologically promising high temperature additives, and is something that challenged previous generations of silver-organic additives.
Silver complex 1 was added to oil at 0.0, 1.0, 2.5, and 5 wt % loadings. A minimal amount of hexanes was added to aid in solubilizing the complex (1 mL hexanes/g of complex) before mixing with oil.

[1] = Wear analysis by white light interferometry of wear scars; settings: disks of temperature ramp tests
Description: After friction tests were completed, the disks were sonicated in a hexane bath to remove oil residue. The volume of the wear scar was measured using a Zygo NewView 7100 white light interferometer. The wear volume and material buildup around the wear scar were used to calculate the wear rate, which is defined as the volume removed per unit load per sliding distance. Each additive concentration in oil was tested twice for friction and wear performance. Energy-dispersive X-ray spectroscopy (EDS) on Hitachi S4800-II and Hitachi SU8030 Scanning Electron Microscopes (SEMs) was used to examine the morphology of the disk surface and deposited silver content.
The disks used in the temperature ramp tests (FIG. 8) were next analyzed by white light interferometry to determine the volume of the wear scars and the material buildup outside of the scar. The volume of material removed was normalized for load and the distance traveled during the test. […] The trend in wear rate is similar to the trend in COF (FIG. 7), with a 2.5 wt % loading producing the lowest amounts of wear. […] It is hypothesized that the increase in efficiency of additive 1 is attributable to the increased number of silver atoms/molecule and improved solubility in oil, which enables better dispersion of the additive in base oil.

[2] = Temperature-ramped pin-on-disk (ball-on-disk) tribometry, friction (COF); settings: for friction reduction: temperature ramp 180 to 350° C. over 30 min
Description: as §1
Table 1 outlines the experimental conditions used in this study. A ball bearing made of M50 bearing steel with 62 HRC hardness and a diameter of 4 mm is used to apply a vertical load to a 52100 steel disk with 50 HRC hardness and a diameter to 3″ as the disk rotates. The surface of the disk is coated with a 2 mL solution of 1 in the desired base oil. The sliding test conditions for all the experiments were: Normal load=25 N, sliding velocity=200 rpm. In the temperature ramp experiments, the temperature is increased from 180-350° C. over 30 min in order to detect any change in frictional characteristics as the oil degrades, and partially evaporates, and once the metallic Ag is deposited.
Silver complex 1 was added to oil at 0.0, 1.0, 2.5, and 5 wt % loadings. A minimal amount of hexanes was added to aid in solubilizing the complex (1 mL hexanes/g of complex) before mixing with oil. The oils used are PAO4, a base oil with no additives, and a military-grade 15W40 oil, which is fully formulated (FF) but contains no silver-containing additives (confirmed by elemental analysis).

- solubility in PAO4 (Solubility in base oil; 5 wt % loading, gentle heating at 40° C.): homogeneous solution
- solubility in oil (PAO4 or 15W40) (Solubility in base oil; cloudy suspension at room temperature, heating to 40° C. and magnetic stirring, 1 mL hexanes/g of complex): dissolves fully
- COF behaviour as the oil begins to degrade above ~275° C. ([2]; 2.5 wt % loading in either base oil (PAO4, 15W40), temperature ramp 180 to 350° C.): the COF does not increase
Structure (SMILES): CCCCCCc1c(C)n[n-]c1C.[Ag+] [Compound 1, Ag(3,5-dimethyl-4-n-hexyl-pyrazole)]
- wear reduction ([1]; 2.5 wt % loading in 15W40): 70%
- wear reduction ([1]; 2.5 wt % loading in PAO4): 60%
- friction reduction ([2]; 2.5 wt % loading in 15W40): 30%
- friction reduction ([2]; 2.5 wt % loading in PAO4): 20%

Source: patent publication US9777021B2, “Lubricant additives” (Qatar Foundation, priority 2016, dated 2017)
